In PubChem BioAssay (NCI):
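Test compounds were applied to cells in 96-well plates for 48 hours at 5 doses. At the TGI there is no net growth.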

Tests used:
Test in all cases: growth of human tumour cells (NCI), 48 h
NCI-H226 lung = tested on: NCI-H226 lung
KM12 colon = tested on: KM12 colon
U251 CNS = tested on: U251 CNS
ACHN renal = tested on: ACHN renal
SNB-19 CNS = tested on: SNB-19 CNS
HT29 colon = tested on: HT29 colon
OVCAR-5 ovarian = tested on: OVCAR-5 ovarian
NCI/ADR-RES ovarian = tested on: NCI/ADR-RES ovarian
HOP-92 NSCLC = tested on: HOP-92 NSCLC
SW-620 colon = tested on: SW-620 colon
NCI-H23 lung = tested on: NCI-H23 lung
SF-539 CNS = tested on: SF-539 CNS
HCT-15 colon = tested on: HCT-15 colon
MDA-MB-231 breast = tested on: MDA-MB-231 breast
EKVX NSCLC = tested on: EKVX NSCLC
MDA-N = tested on: MDA-N
RXF 393 renal = tested on: RXF 393 renal
SK-MEL-5 melanoma = tested on: SK-MEL-5 melanoma
A549 NSCLC = tested on: A549 NSCLC
OVCAR-3 ovarian = tested on: OVCAR-3 ovarian
DU-145 prostate = tested on: DU-145 prostate
OVCAR-8 ovarian = tested on: OVCAR-8 ovarian
IGROV1 ovarian = tested on: IGROV1 ovarian
CAKI-1 renal = tested on: CAKI-1 renal
TK-10 renal = tested on: TK-10 renal
SN12C renal = tested on: SN12C renal
MDA-MB-435 = tested on: MDA-MB-435
OVCAR-4 ovarian = tested on: OVCAR-4 ovarian
M14 melanoma = tested on: M14 melanoma
SNB-75 CNS = tested on: SNB-75 CNS
COLO 205 colon = tested on: COLO 205 colon
PC-3 prostate = tested on: PC-3 prostate
HCT-116 colon = tested on: HCT-116 colon
SF-295 CNS = tested on: SF-295 CNS
SK-MEL-28 melanoma = tested on: SK-MEL-28 melanoma
SF-268 CNS = tested on: SF-268 CNS
SK-OV-3 ovarian = tested on: SK-OV-3 ovarian
SK-MEL-2 melanoma = tested on: SK-MEL-2 melanoma
RPMI-8226 leukemia = tested on: RPMI-8226 leukemia
BT-549 breast = tested on: BT-549 breast
HL-60(TB) leukemia = tested on: HL-60(TB) leukemia
A498 renal = tested on: A498 renal
MOLT-4 leukemia = tested on: MOLT-4 leukemia
K-562 leukemia = tested on: K-562 leukemia
HCC-2998 colon = tested on: HCC-2998 colon
MCF7 breast = tested on: MCF7 breast
MALME-3M melanoma = tested on: MALME-3M melanoma
SR leukemia = tested on: SR leukemia
HOP-62 NSCLC = tested on: HOP-62 NSCLC
NCI-H460 lung = tested on: NCI-H460 lung
786-0 renal = tested on: 786-0 renal
CCRF-CEM leukemia = tested on: CCRF-CEM leukemia
UO-31 renal = tested on: UO-31 renal

COC(=O)C1ON2C(C1C(=O)OC)C(C)(C)N(O)C2(C)C (stereo not given)
TGI (NCI-H226 lung): > 10 µM
TGI (KM12 colon): > 10 µM
TGI (U251 CNS): > 10 µM
TGI (ACHN renal): > 10 µM
TGI (SNB-19 CNS): > 10 µM
TGI (HT29 colon): > 10 µM
TGI (OVCAR-5 ovarian): > 10 µM
TGI (NCI/ADR-RES ovarian): > 10 µM
TGI (HOP-92 NSCLC): > 10 µM
TGI (SW-620 colon): > 10 µM
TGI (NCI-H23 lung): > 10 µM
TGI (SF-539 CNS): > 10 µM
TGI (HCT-15 colon): > 10 µM
TGI (MDA-MB-231 breast): > 10 µM
TGI (EKVX NSCLC): > 10 µM
TGI (MDA-N): > 10 µM
TGI (RXF 393 renal): > 10 µM
TGI (SK-MEL-5 melanoma): > 10 µM
TGI (A549 NSCLC): > 10 µM
TGI (OVCAR-3 ovarian): > 10 µM
TGI (DU-145 prostate): > 10 µM
TGI (OVCAR-8 ovarian): > 10 µM
TGI (IGROV1 ovarian): > 10 µM
TGI (CAKI-1 renal): > 10 µM
TGI (TK-10 renal): > 10 µM
TGI (SN12C renal): > 10 µM
TGI (MDA-MB-435): > 10 µM
TGI (OVCAR-4 ovarian): > 10 µM
TGI (M14 melanoma): > 10 µM
TGI (SNB-75 CNS): > 10 µM
TGI (COLO 205 colon): > 10 µM
TGI (PC-3 prostate): > 10 µM
TGI (HCT-116 colon): > 10 µM
TGI (SF-295 CNS): > 10 µM
TGI (SK-MEL-28 melanoma): > 10 µM
TGI (SF-268 CNS): > 10 µM

C/C(=N\Nc1nc2ccccc2o1)c1cc(C)ncn1
TGI (SK-OV-3 ovarian): 2.5 µM
TGI (SK-MEL-2 melanoma): 32.7 µM
TGI (RPMI-8226 leukemia): > 100 µM
TGI (BT-549 breast): > 100 µM
TGI (KM12 colon): 11.7 µM
TGI (HL-60(TB) leukemia): > 100 µM
TGI (U251 CNS): > 100 µM
TGI (A498 renal): > 100 µM
TGI (ACHN renal): 29.3 µM
TGI (MOLT-4 leukemia): 3.09 µM
TGI (SNB-19 CNS): > 100 µM
TGI (HT29 colon): 14.8 µM
TGI (OVCAR-5 ovarian): 26.8 µM
TGI (NCI/ADR-RES ovarian): 0.0739 µM
TGI (HOP-92 NSCLC): > 21.7 µM
TGI (SW-620 colon): > 100 µM
TGI (NCI-H23 lung): > 43.7 µM
TGI (SF-539 CNS): 5.77 µM
TGI (K-562 leukemia): > 100 µM
TGI (HCT-15 colon): 35.3 µM
TGI (HCC-2998 colon): > 48.6 µM
TGI (MDA-MB-231 breast): 75 µM
TGI (EKVX NSCLC): 2.95 µM
TGI (MDA-N): > 100 µM
TGI (RXF 393 renal): 32.1 µM
TGI (MCF7 breast): > 85.3 µM
TGI (SK-MEL-5 melanoma): 14.3 µM
TGI (A549 NSCLC): > 39 µM
TGI (OVCAR-3 ovarian): > 54.7 µM
TGI (DU-145 prostate): > 100 µM
TGI (OVCAR-8 ovarian): 0.0519 µM
TGI (MALME-3M melanoma): 33.1 µM
TGI (SR leukemia): > 100 µM
TGI (IGROV1 ovarian): 1.51 µM
TGI (CAKI-1 renal): 42.5 µM
TGI (SN12C renal): > 100 µM
TGI (HOP-62 NSCLC): > 35.3 µM
TGI (MDA-MB-435): > 100 µM
TGI (OVCAR-4 ovarian): 27.5 µM
TGI (NCI-H460 lung): 30.5 µM
TGI (M14 melanoma): > 34.7 µM
TGI (SNB-75 CNS): 3.27 µM
TGI (COLO 205 colon): > 40.8 µM
TGI (PC-3 prostate): > 100 µM
TGI (HCT-116 colon): > 100 µM
TGI (786-0 renal): 24.3 µM
TGI (SK-MEL-28 melanoma): > 100 µM
TGI (CCRF-CEM leukemia): > 100 µM
TGI (UO-31 renal): 0.311 µM
